Experimental data from PMC2263054, “Functional evolution of the vitamin D and pregnane X receptors” (BMC Evolutionary Biology, 2007).
Like-named read-outs stand apart in the source and are kept apart here.

Assays:
Xenopus laevis VDR = target: T1, Xenopus laevis VDR (Xenopus laevis, UniProt O13124); test: luciferase reporter transactivation assay in HepG2-NTCP cells, GAL4/xlVDR LBD chimera with tk-UAS-Luc; format: cell-based; details: for Effect on Xenopus laevis VDR: screening for activators, at least three concentrations of each drug; for Xenopus VDR EC50 ± SD / EC50: HepG2-NTCP cells, luciferase reporter; for Xenopus VDR EC50 ± SD: unit not given, also cells saying No effect; for EC50: read-out: Xenopus VDR EC50 ± SD; for Xenopus VDR relative efficacy: relative to maximal reference compound (1 μM calcitriol, efficacy = 1.0)
T1 sequence (O13124 90-422): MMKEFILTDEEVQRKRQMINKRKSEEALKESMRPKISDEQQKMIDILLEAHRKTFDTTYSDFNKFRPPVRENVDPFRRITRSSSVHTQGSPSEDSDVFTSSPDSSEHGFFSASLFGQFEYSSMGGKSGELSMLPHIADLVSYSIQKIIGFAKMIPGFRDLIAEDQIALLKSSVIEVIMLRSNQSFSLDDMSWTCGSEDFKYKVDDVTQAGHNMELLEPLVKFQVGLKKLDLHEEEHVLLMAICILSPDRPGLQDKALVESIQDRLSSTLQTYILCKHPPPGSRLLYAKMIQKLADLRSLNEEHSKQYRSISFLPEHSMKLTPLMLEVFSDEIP

Zebrafish VDR = target: T2, Zebrafish VDR (Danio rerio, UniProt Q9PTN2); test: luciferase reporter transactivation assay in HepG2-NTCP cells, GAL4/zfVDR LBD chimera with tk-UAS-Luc; format: cell-based; details: for Effect on zebrafish VDR: screening for activators, at least three concentrations of each drug; for Zebrafish VDR EC50 ± SD / EC50: HepG2-NTCP cells, luciferase reporter; for Zebrafish VDR EC50 ± SD: unit not given, also cells saying No effect; for EC50: read-out: Zebrafish VDR EC50 ± SD; for Zebrafish VDR relative efficacy: relative to maximal reference compound (1 μM calcitriol, efficacy = 1.0)
T2 sequence (Q9PTN2 121-453): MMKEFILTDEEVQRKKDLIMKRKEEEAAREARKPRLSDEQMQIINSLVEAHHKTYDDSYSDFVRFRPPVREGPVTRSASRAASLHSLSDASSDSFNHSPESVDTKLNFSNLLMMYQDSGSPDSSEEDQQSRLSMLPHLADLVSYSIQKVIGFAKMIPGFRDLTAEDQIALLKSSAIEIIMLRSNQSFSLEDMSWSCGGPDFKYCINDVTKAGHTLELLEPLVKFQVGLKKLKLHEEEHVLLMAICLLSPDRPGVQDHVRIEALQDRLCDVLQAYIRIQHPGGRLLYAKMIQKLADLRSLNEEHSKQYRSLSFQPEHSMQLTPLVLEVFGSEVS

[1] = tested on: ethoxyresorufin O-deethylase (EROD) activity (CYP1A-like activity); test: EROD assay in zebrafish primary hepatocytes; details: zebrafish primary hepatocytes; DIM at concentrations of 2 μM and greater
Description: (§1) The cells are cultured at 26°C in ambient atmosphere.

Sea lamprey VDR = target: T3, Sea lamprey VDR (Petromyzon marinus, UniProt Q7ZZY9); format: cell-based; details: for Effect on sea lamprey VDR: screening for activators, at least three concentrations of each drug; for EC50: read-out: Sea lamprey VDR EC50 ± SD
T3 sequence (Q7ZZY9 92-406): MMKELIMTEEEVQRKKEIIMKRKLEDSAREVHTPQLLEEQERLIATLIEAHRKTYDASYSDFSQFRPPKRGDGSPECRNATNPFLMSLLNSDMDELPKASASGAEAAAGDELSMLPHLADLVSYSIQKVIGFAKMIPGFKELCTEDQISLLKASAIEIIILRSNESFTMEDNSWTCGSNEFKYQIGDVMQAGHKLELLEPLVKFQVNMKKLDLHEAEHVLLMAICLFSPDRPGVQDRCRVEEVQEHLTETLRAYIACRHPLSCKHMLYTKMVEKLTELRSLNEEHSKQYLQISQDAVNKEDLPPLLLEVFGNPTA

[2] = tested on: testosterone 6β-hydroxylation; test: testosterone hydroxylation (HPLC) in sea lamprey primary hepatocytes; format: cell-based; details: concentration ranges per compound
Description: (§2) 100 μL of sample, calibration standard, or quality material standard were pipetted into separate microcentrifuge tubes and mixed with 100 μL of methanol. Samples were vortexed and centrifuged at 13,000 rpm for 4 min. The supernatant was then injected into the HPLC.
(§3) The flow rate was 1.2 mL/min and total run time was 25 min.

EROD activity = test: EROD assay in sea lamprey primary hepatocytes; details: 24–48 hr exposure
Mouse VDR = target: T4, Mouse VDR (Mus musculus, UniProt P48281); test: luciferase reporter transactivation assay in HepG2-NTCP cells, full-length mVDR with CYP3A4-PXRE-Luc; details: for Mouse VDR EC50 ± SD / EC50: HepG2-NTCP cells, luciferase reporter; for Mouse VDR EC50 ± SD: unit not given, also cells saying No effect; for EC50: read-out: Mouse VDR EC50 ± SD
T4 sequence (P48281 1-422): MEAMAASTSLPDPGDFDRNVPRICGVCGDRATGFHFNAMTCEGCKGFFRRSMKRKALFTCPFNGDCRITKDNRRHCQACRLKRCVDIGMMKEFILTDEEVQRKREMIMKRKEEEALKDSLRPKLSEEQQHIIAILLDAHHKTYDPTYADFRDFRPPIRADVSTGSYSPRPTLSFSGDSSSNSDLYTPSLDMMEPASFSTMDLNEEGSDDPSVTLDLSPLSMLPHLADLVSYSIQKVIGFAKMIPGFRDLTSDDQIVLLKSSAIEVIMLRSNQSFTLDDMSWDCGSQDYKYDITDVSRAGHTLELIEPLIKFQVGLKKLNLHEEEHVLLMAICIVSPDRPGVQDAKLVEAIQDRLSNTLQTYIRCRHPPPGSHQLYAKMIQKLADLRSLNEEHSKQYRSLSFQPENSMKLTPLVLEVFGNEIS

Human VDR = target: T5, Human VDR (Homo sapiens, UniProt P11473); test: luciferase reporter transactivation assay in HepG2-NTCP cells, full-length hVDR with CYP3A4-PXRE-Luc; details: for Human VDR EC50 ± SD / EC50: HepG2-NTCP cells, luciferase reporter; for Human VDR EC50 ± SD: unit not given, also cells saying No effect; for EC50: read-out: Human VDR EC50 ± SD
T5 sequence (P11473 1-427): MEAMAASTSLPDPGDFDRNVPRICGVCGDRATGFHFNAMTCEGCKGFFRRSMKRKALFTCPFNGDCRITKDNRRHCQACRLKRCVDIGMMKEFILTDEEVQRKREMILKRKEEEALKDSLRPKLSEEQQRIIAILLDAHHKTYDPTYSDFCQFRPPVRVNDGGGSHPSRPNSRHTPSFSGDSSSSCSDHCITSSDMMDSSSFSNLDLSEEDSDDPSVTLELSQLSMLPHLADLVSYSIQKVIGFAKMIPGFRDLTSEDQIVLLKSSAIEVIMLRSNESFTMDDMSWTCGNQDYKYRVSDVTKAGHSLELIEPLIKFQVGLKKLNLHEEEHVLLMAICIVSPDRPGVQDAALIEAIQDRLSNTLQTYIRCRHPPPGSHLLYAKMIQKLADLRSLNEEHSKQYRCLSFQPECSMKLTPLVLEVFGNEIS

Ciona VDR/PXR = details: HepG2-NTCP cells, luciferase reporter; unit not given; also cells saying No effect
[3] = tested on: testosterone 6β-hydroxylation activity (CYP3A-like activity); test: in vitro
Description: as §1, §2, §3

[4] = HepG2-NTCP cells, luciferase reporter, unit not given, also cells saying No effect
[5] = relative to maximal reference compound (0.5 μM calcitriol, efficacy = 1.0)
[6] = HepG2-NTCP cells, luciferase reporter

## c1ccc2c(Cc3c[nH]c4ccccc34)c[nH]c2c1 [3,3'-diindoylmethane]
Xenopus laevis VDR
  Effect on Xenopus laevis VDR: No effect
Zebrafish VDR
  Effect on zebrafish VDR: No effect
[1]
  effect on EROD activity: caused a decrease in EROD activity
Sea lamprey VDR
  Effect on sea lamprey VDR: No effect

## C[C@H](CCCO)[C@H]1CC[C@H]2[C@@H]3[C@H](O)C[C@H]4CC(=O)CC[C@]4(C)[C@H]3C[C@H](O)[C@]12C [3-keto-5α-petromyzonol]
[2]
  effect on testosterone 6β-hydroxylation: None of these compounds produced significant increases in testosterone 6β-hydroxylation

## CC(CCCOS(=O)(=O)O)[C@H]1CCC2C3C(C[C@H](O)[C@@]21C)[C@@]1(C)CC[C@@H](O)C[C@@H]1C[C@H]3O (stereo partly drawn) [5α-Petromyzonol 24-sulfate]
EROD activity
  effect on EROD activity: did not alter EROD activity
Mouse VDR
  Mouse VDR EC50 ± SD: No effect
Xenopus laevis VDR
  Xenopus VDR EC50 ± SD: No effect
[2]
  effect on testosterone 6β-hydroxylation: None of these compounds produced significant increases in testosterone 6β-hydroxylation
Zebrafish VDR
  Zebrafish VDR EC50 ± SD: No effect
Human VDR
  Human VDR EC50 ± SD: No effect
Ciona VDR/PXR
  Ciona VDR/PXR EC50 ± SD: No effect
Sea lamprey VDR; [4]
  Sea lamprey VDR EC50 ± SD: No effect

## C[C@]12CC[C@@H](O)C[C@@H]1CC[C@@H]1[C@@H]2CC[C@]2(C)C=CC[C@@H]12 [5α-androst-16-en-3α-ol]
Xenopus laevis VDR
  Effect on Xenopus laevis VDR: No effect
[2]
  effect on testosterone 6β-hydroxylation: None of these compounds produced significant increases in testosterone 6β-hydroxylation
Zebrafish VDR
  Effect on zebrafish VDR: No effect
Sea lamprey VDR
  Effect on sea lamprey VDR: No effect

## C=C1CC[C@H](O)C/C1=C/C=C1\CCC[C@]2(C)[C@@H]([C@H](C)CC[C@@H](O)C(C)(C)O)CC[C@@H]12 [24(R),25-(OH)2-Vitamin D3]
Mouse VDR
  EC50: 0.3 ± 0.02 µM
Mouse VDR; [5]
  Mouse VDR relative efficacy: 1.7
Xenopus laevis VDR
  EC50: 11 ± 1.7 µM
  Xenopus VDR relative efficacy: 0.20
Zebrafish VDR
  EC50: 0.7 ± 0.06 µM
  Zebrafish VDR relative efficacy: 0.6
Human VDR
  EC50: 0.3 ± 0.02 µM
Human VDR; relative to maximal reference compound (1 μM calcitriol, efficacy = 1.0)
  Human VDR relative efficacy: 0.9
Ciona VDR/PXR
  Ciona VDR/PXR EC50 ± SD: No effect
Sea lamprey VDR; [6]
  EC50: 5.6 ± 0.8 µM
Sea lamprey VDR; [5]
  Sea lamprey VDR relative efficacy: 0.9

## C=C1CC[C@H](O)C/C1=C/C=C1\CCC[C@]2(C)[C@@H]([C@H](C)CCCC(C)(C)O)CC[C@@H]12 [25-Hydroxyvitamin D3]
Mouse VDR
  Mouse VDR relative efficacy: 2.62
  EC50: 0.6 ± 0.1 µM
Xenopus laevis VDR
  EC50: 11 ± 0.8 µM
  Xenopus VDR relative efficacy: 0.67
[2]
  effect on testosterone 6β-hydroxylation: None of these compounds produced significant increases in testosterone 6β-hydroxylation
Zebrafish VDR
  EC50: 7.3 ± 0.8 µM
  Zebrafish VDR relative efficacy: 0.91
Human VDR
  Human VDR relative efficacy: 1.22
Human VDR; unit M
  EC50: 1.5 ± 0.2 µM
Ciona VDR/PXR
  Ciona VDR/PXR EC50 ± SD: No effect
Sea lamprey VDR
  Sea lamprey VDR relative efficacy: 0.63
Sea lamprey VDR; [6]
  EC50: 19 ± 2.1 µM

## C[C@H](CCC(=O)NCC(=O)O)[C@H]1CC[C@H]2[C@@H]3CC[C@@H]4C[C@H](O)CC[C@]4(C)[C@H]3CC[C@]12C [Glycolithocholic acid]
Mouse VDR
  Mouse VDR relative efficacy: 0.28
Xenopus laevis VDR
  Xenopus VDR EC50 ± SD: No effect
Zebrafish VDR
  Zebrafish VDR EC50 ± SD: No effect
Human VDR
  Human VDR EC50 ± SD: No effect
Ciona VDR/PXR
  Ciona VDR/PXR EC50 ± SD: No effect
Sea lamprey VDR; [4]
  Sea lamprey VDR EC50 ± SD: No effect

## C[C@H](CCC(=O)O)[C@H]1CC[C@H]2[C@@H]3CC[C@@H]4C[C@H](OS(=O)(=O)O)CC[C@]4(C)[C@H]3CC[C@]12C [Lithocholic acid 3-sulfate]
Mouse VDR
  Mouse VDR EC50 ± SD: No effect
Xenopus laevis VDR
  Xenopus VDR EC50 ± SD: No effect
Zebrafish VDR
  Zebrafish VDR EC50 ± SD: No effect
Human VDR
  Human VDR EC50 ± SD: No effect
Ciona VDR/PXR
  Ciona VDR/PXR EC50 ± SD: No effect
Sea lamprey VDR
  Sea lamprey VDR EC50 ± SD: No effect

## CC(=O)[C@H]1CC[C@H]2[C@@H]3CC=C4C[C@@H](O)CC[C@]4(C)[C@H]3CC[C@]12C [Pregnenolone]
Xenopus laevis VDR
  Effect on Xenopus laevis VDR: No effect
[2]
  effect on testosterone 6β-hydroxylation: None of these compounds produced significant increases in testosterone 6β-hydroxylation
Zebrafish VDR
  Effect on zebrafish VDR: No effect
Sea lamprey VDR
  Effect on sea lamprey VDR: No effect

## C[C@H](CCC(=O)NCCS(=O)(=O)O)[C@H]1CC[C@H]2[C@@H]3CC[C@@H]4C[C@H](O)CC[C@]4(C)[C@H]3CC[C@]12C [Taurolithocholic acid]
Mouse VDR; [5]
  Mouse VDR relative efficacy: 0.23
Xenopus laevis VDR
  Xenopus VDR EC50 ± SD: No effect
Zebrafish VDR
  Zebrafish VDR EC50 ± SD: No effect
Human VDR
  Human VDR EC50 ± SD: No effect
Ciona VDR/PXR
  Ciona VDR/PXR EC50 ± SD: No effect
Sea lamprey VDR; [4]
  Sea lamprey VDR EC50 ± SD: No effect

## C[C@@]12CCC[C@H]1[C@@H]1CC[C@H]3C[C@H](O)CC[C@]3(C)[C@H]1CC2 [androstanol, 5α-androstan-3α-ol]
EROD activity
  effect on EROD activity: did not alter EROD activity
[3]; zebrafish
  EC50: 20 ± 2.7 µM
[3]; zebrafish primary hepatocytes, 48-hour exposure
  maximal rate of testosterone 6β-hydroxylation: 717 pmol/min/mg protein
Xenopus laevis VDR
  Effect on Xenopus laevis VDR: No effect
[2]
  effect on testosterone 6β-hydroxylation: None of these compounds produced significant increases in testosterone 6β-hydroxylation
Zebrafish VDR
  Effect on zebrafish VDR: No effect
Sea lamprey VDR
  Effect on sea lamprey VDR: No effect

## Pregnenolone sulfate
Xenopus laevis VDR
  Effect on Xenopus laevis VDR: No effect
[2]
  effect on testosterone 6β-hydroxylation: None of these compounds produced significant increases in testosterone 6β-hydroxylation
Zebrafish VDR
  Effect on zebrafish VDR: No effect
Sea lamprey VDR
  Effect on sea lamprey VDR: No effect
